From patent US20220267349A1, “HETEROCYCLIC COMPOUNDS” (Hoffmann-La Roche Inc., priority 2019, published 2022)

molecular target: T1, MAGL (Homo sapiens, UniProt Q99685); assay: 2-AG assay (MAGL inhibitory activity, hydrolysis of 2-arachidonoylglycerol followed by mass spectrometry); format: biochemical; details: 50 pM MAGL, 8 μM 2-arachidonoylglycerol, 15 min preincubation, 30 min incubation at RT
T1 sequence (Q99685 1-303): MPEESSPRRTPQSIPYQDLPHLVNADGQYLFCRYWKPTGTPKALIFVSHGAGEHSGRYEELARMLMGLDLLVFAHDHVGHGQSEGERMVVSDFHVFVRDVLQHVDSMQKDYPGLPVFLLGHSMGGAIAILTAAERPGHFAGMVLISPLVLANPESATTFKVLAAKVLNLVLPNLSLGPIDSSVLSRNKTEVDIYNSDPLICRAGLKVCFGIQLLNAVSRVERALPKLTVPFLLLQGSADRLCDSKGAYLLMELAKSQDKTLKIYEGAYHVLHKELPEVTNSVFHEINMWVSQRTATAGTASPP
Method: Compounds were profiled for MAGL inhibitory activity by determining the enzymatic activity by following the hydrolysis of the natural substrate 2-arachidonoylglycerol resulting in arachidonic acid, which can be followed by mass spectrometry. This assay is hereinafter abbreviated “2-AG assay”.
The 2-AG assay was carried out in 384 well assay plates (PP, Greiner Cat #784201) in a total volume of 20 μL. Compound dilutions were made in 100% DMSO (VWR Chemicals 23500.297) in a polypropylene plate in 3-fold dilution steps to give a final concentration range in the assay from 12.5 μM to 0.8 pM. 0.25 μL compound dilutions (100% DMSO) were added to 9 μL MAGL in assay buffer (50 mM TRIS (GIBCO, 15567-027), 1 mM EDTA (Fluka, 03690-100 ml), 0.01% (v/v) Tween. After shaking, the plate was incubated for 15 min at RT. To start the reaction, 10 μL 2-arachidonoylglycerol in assay buffer was added. The final concentrations in the assay was 50 pM MAGL and 8 μM 2-arachidonoylglyerol. After shaking and 30 min incubation at RT, the reaction was quenched by the addition of 40 μL of acetonitrile containing 4 μM of d8-arachidonic acid. The amount of arachidonic acid was traced by an online SPE system (Agilent Rapidfire) coupled to a triple quadrupole mass spectrometer (Agilent 6460). A C18 SPE cartridge (G9205A) was used in an acetonitrile/water liquid setup. The mass spectrometer was operated in negative electrospray mode following the mass transitions 303.1→259.1 for arachidonic acid and 311.1→267.0 for d8-arachidonic acid. The activity of the compounds was calculated based on the ratio of intensities [arachidonic acid/d8-arachidonic acid].

Q: For O=C1CN[C@@H]2CCN(C(=O)N3CC(OCc4ccc(C(F)(F)F)cc4F)C3)C[C@@H]2N1 (single isomer, unassigned) [Example 14, (4aS,8aR)- or (4aS,8aR)-6-[3-[[2-Fluoro-4-(trifluoromethyl)phenyl]methoxy]azetidine-1-carbonyl]-1,2,4,4a,5,7,8,8a-octahydropyrido[3,4-b]pyrazin-3-one], which IC50 is on record?
A: Its IC50 is 1430 nM.

Q: Which IC50 does the source give for CC1CN(C(=O)N2CC(OCc3ccc(C(F)(F)F)cc3F)C2)CC2NC(=O)COC12 [Example 2, rel-(4aS,8R,8aR)-6-[3-[[2-Fluoro-4-(trifluoromethyl)phenyl]methoxy]azetidine-1-carbonyl]-8-methyl-4,4a,5,7,8,8a-hexahydropyrido[4,3-b][1,4]oxazin-3-one] here?
A: Its IC50 is 118 nM.

Q: O=C1CN[C@H]2CCN(C(=O)N3CC(OCc4ccc(C(F)(F)F)cc4F)C3)C[C@H]2N1 (racemic) [Example 12, rac-(4aR,8aS)-6-[3-[[2-Fluoro-4-(trifluoromethyl)phenyl]methoxy]azetidine-1-carbonyl]-1,2,4,4a,5,7,8,8a-octahydropyrido[3,4-b]pyrazin-3-one] was tested. Which IC50 did it give?
A: Its IC50 is 72.8 nM.

Q: How did the IC50 turn out when O=C1COC2=C(CN(C(=O)N3CCC(Cc4ccc(C(F)(F)F)cc4)CC3)CC2)N1 [Example 7, 6-[4-[[4-(Trifluoromethyl)phenyl]methyl]piperidine-1-carbonyl]-4,5,7,8-tetrahydropyrido[4,3-b][1,4]oxazin-3-one] was run?
A: The IC50 was 51.8 nM.

Q: For O=C1CC[C@H]2CCN(C(=O)N3CC(OCc4ccc(C(F)(F)F)cc4F)C3)C[C@H]2N1 (racemic) [Example 11, rac-(4aS,8aS)-7-[3-[[2-Fluoro-4-(trifluoromethyl)phenyl]methoxy]azetidine-1-carbonyl]-1,3,4,4a,5,6,8,8a-octahydro-1,7-naphthyridin-2-one], which IC50 is on record?
A: Its IC50 is 3.1 nM.

Q: How did the IC50 turn out when O=C1CO[C@H]2[C@H](CN(C(=O)N3CC(OCc4ccc(C(F)(F)F)cc4F)C3)CC2(F)F)N1 (single isomer, unassigned) [Example 3] was run?
A: Its IC50 is 11.1 nM.

Q: O=C1CO[C@H]2[C@H](CN(C(=O)N3CC(c4ccc(CC(F)(F)F)cc4)C3)CC2(F)F)N1 (single isomer, unassigned) [Example 5] was tested. Which IC50 did it give?
A: The IC50 was 2.6 nM.

Q: How did the IC50 turn out when O=C(N1CCC(C(c2ccccc2)c2ccccc2)CC1)N1CCc2ccc(=O)[nH]c2C1 [Example 8, 7-(4-Benzhydrylpiperidine-1-carbonyl)-1,5,6,8-tetrahydro-1,7-naphthyridin-2-one] was run?
A: The IC50 was 3 nM.

Q: O=C1CN[C@H]2CCN(C(=O)N3CC(OCc4ccc(C(F)(F)F)cc4F)C3)C[C@H]2N1 (single isomer, unassigned) [Example 13, (4aR,8aS)- or (4aR,8aS)-6-[3-[[2-Fluoro-4-(trifluoromethyl)phenyl]methoxy]azetidine-1-carbonyl]-1,2,4,4a,5,7,8,8a-octahydropyrido[3,4-b]pyrazin-3-one] was tested. Which IC50 did it give?
A: The IC50 was 159 nM.

Q: Which IC50 does the source give for O=C1CC[C@H]2CCN(C(=O)N3CCC(C(c4ccccc4)c4ccccc4)CC3)C[C@H]2N1 (racemic) [Example 10, rac-(4aS,8aS)-7-(4-Benzhydrylpiperidine-1-carbonyl)octahydro-1,7-naphthyridin-2(1H)-one] here?
A: The IC50 was 0.06 nM.

Q: How did the IC50 turn out when O=C1CO[C@H]2CCN(C(=O)N3CC(OCc4ccc(C(F)(F)F)cc4F)C3)C[C@@]2(O)N1 [Example 16, (4aS,8aS)-6-[3-[[2-fluoro-4-(trifluoromethyl)phenyl]methoxy]azetidine-1-carbonyl]-4a-hydroxy-5,7,8,8a-tetrahydro-4H-pyrido[4,3-b][1,4]oxazin-3-one] was run?
A: The IC50 was 791 nM.

Q: For O=C(N1CCc2ccc(=O)[nH]c2C1)N1CC(OCc2ccc(C(F)(F)F)cc2F)C1 [Example 9, 7-[3-[[2-Fluoro-4-(trifluoromethyl)phenyl]methoxy]azetidine-1-carbonyl]-1,5,6,8-tetrahydro-1,7-naphthyridin-2-one], which IC50 is on record?
A: The IC50 was 14.3 nM.

Q: How did the IC50 turn out when O=C1CO[C@@H]2[C@@H](CN(C(=O)N3CC(c4ccc(CC(F)(F)F)cc4)C3)CC2(F)F)N1 (single isomer, unassigned) [Example 6] was run?
A: Its IC50 is 649 nM.

Q: For O=C1CSC2=C(CN(C(=O)N3CC(OCc4ccc(C(F)(F)F)cc4F)C3)CC2)N1 [Example 17, 6-[3-[[2-fluoro-4-(trifluoromethyl)phenyl]methoxy]azetidine-1-carbonyl]-4,5,7,8-tetrahydropyrido[4,3-b][1,4]thiazin-3-one], which IC50 is on record?
A: Its IC50 is 48.3 nM.

Q: With O=C1CC(O)[C@H]2CCN(C(=O)N3CC(OCc4ccc(C(F)(F)F)cc4F)C3)C[C@H]2N1 (mixture of isomers) [Example 18, rac-(4aS,8aS)-7-[3-[[2-fluoro-4-(trifluoromethyl)phenyl]methoxy]azetidine-1-carbonyl]-4-hydroxy-1,3,4,4a,5,6,8,8a-octahydro-1,7-naphthyridin-2-one] as the molecule, how does the IC50 read?
A: Its IC50 is 1100 nM.

Q: With C[C@H]1CN(C(=O)N2CC(OCc3ccc(C(F)(F)F)cc3F)C2)C[C@H]2NC(=O)CO[C@@H]12 (relative stereo) [Example 1, rel-(4aR,8S,8aS)-6-[3-[[2-Fluoro-4-(trifluoromethyl)phenyl]methoxy]azetidine-1-carbonyl]-8-methyl-4,4a,5,7,8,8a-hexahydropyrido[4,3-b][1,4]oxazin-3-one] as the molecule, how does the IC50 read?
A: The IC50 was 4.4 nM.

Q: For O=C1CO[C@@H]2[C@@H](CN(C(=O)N3CC(OCc4ccc(C(F)(F)F)cc4F)C3)CC2(F)F)N1 (single isomer, unassigned) [Example 4], which IC50 is on record?
A: Its IC50 is 1370 nM.
